From ChEMBL document CHEMBL1132641, “Structure-activity relationships for a class of inhibitors of purine nucleoside phosphorylase” (J Med Chem, 1999)

What was measured:
Assay in all cases: biochemical
[1] = biological target: T1, Purine nucleoside phosphorylase (Bos taurus, UniProt P55859)
T1 sequence (P55859 whole entry): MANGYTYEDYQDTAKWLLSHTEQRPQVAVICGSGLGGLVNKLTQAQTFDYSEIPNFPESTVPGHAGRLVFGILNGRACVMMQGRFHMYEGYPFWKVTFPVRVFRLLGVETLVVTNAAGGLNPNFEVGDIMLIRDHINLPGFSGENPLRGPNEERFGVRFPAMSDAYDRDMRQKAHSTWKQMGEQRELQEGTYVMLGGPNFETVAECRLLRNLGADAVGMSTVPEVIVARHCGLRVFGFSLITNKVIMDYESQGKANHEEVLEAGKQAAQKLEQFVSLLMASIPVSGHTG
Description: Inhibitory activity against calf spleen purine nucleoside phosphorylase (PNP) using 2-amino-6-mercapto-7-methyl purine ribonucleoside (MESG) as substrate.

[2] = biological target: T1, Purine nucleoside phosphorylase; remark: listed apart in the source
Description: (§1) Inhibitory activity against calf spleen purine nucleoside phosphorylase (PNP) using inosine as substrate at a concentration of 10 uM.

[3] = biological target: T1, Purine nucleoside phosphorylase; remark: listed apart in the source
Description: as §1

SMILES	Ki [1]	Ki [2]	IC50 [3]
Nc1nc(O)c2nc(N)n(Cc3cccs3)c2n1	20.7 nM	35.7 nM	69.4 nM
Nc1nc(O)c2[nH]c(N)c(CC3CCCCC3)c2n1	766 nM	885 nM	1470 nM
Nc1nc(O)c2[nH]cc(C3=CCCCC3)c2n1	500 nM	862 nM	1970 nM
Nc1nc2c(Cc3ccccc3O)c[nH]c2c(=O)[nH]1	31.8 nM	84 nM	182 nM
Nc1nc2c(Cc3cccc(Cl)c3)c[nH]c2c(=O)[nH]1	4.3 nM	18.9 nM	25.8 nM
Cc1nc2c(O)[nH]c(N)nc-2c1Cc1ccccc1	67500 nM	10300 nM	20200 nM
Nc1nc2c(Cc3ccccn3)c[nH]c2c(=O)[nH]1			15.3 nM
Oc1ncn(Cc2ccccc2)c2ncnc1-2		24600 nM	49600 nM
Nc1nc(O)c2[nH]cc(C3CCCCC3)c2n1	333 nM	335 nM	640 nM
Nc1nc2c(CC3CCCS3)c[nH]c2c(=O)[nH]1 (centres undefined)	6 nM	8.5 nM	17.4 nM
CC1CCCC(Cc2c[nH]c3c(=O)[nH]c(N)nc23)C1 (centres undefined)	3.3 nM	11.4 nM	19.2 nM
Nc1nc2c(CC3CCCC3)c[nH]c2c(=O)[nH]1	6.2 nM	9.1 nM	20.2 nM
Nc1nc2c(Cc3cnccc3Cl)c[nH]c2c(=O)[nH]1	35.6 nM	66.7 nM	135 nM
Nc1nc(O)c2[nH]cc(C(CC(=O)O)c3ccccc3)c2n1 (centres undefined)	61 nM	9 nM	46.8 nM
Nc1nc2c(Cc3ccc(-c4ccccc4)cc3)c[nH]c2c(=O)[nH]1			546 nM
Nc1nc(O)c2[nH]cc(Cc3ccsc3)c2n1	3.5 nM	15.6 nM	22.6 nM
Nc1nc2c(Cc3ccncc3)c[nH]c2c(=O)[nH]1	16.9 nM	25.4 nM	63.5 nM
Oc1[nH]cnc2c(Cc3ccccc3)cnc1-2	5.4 nM	18.7 nM	24.5 nM
Nc1nc(O)c2[nH]cc(Oc3ccccc3)c2n1			41.5 nM
Nc1nc(O)c2[nH]cc(Cc3ccc(O)cc3)c2n1	35 nM	109 nM	239 nM
N#CCC(c1cccc(Cl)c1)c1c[nH]c2c(=O)[nH]c(N)nc12 (centres undefined)	4.6 nM		16.3 nM
Nc1nc(O)c2[nH]cc(Cc3ccccc3Cl)c2n1	14.4 nM	65 nM	103 nM
CC(C)c1ccc(Cc2c[nH]c3c(=O)[nH]c(N)nc23)cc1			96.6 nM
Nc1nc2c(Cc3ccc(OCc4ccccc4)cc3)c[nH]c2c(=O)[nH]1	20.3 nM	37.8 nM	124 nM
N#CCC(c1cccnc1)c1cnc2c(O)[nH]cnc1-2 (centres undefined)			38.9 nM
Nc1nc2[nH]c(N)nc2c(=O)[nH]1 [8-AMINOGUANINE]	681 nM	982 nM	2300 nM
Nc1nc2c(Cc3cccnc3)c[nH]c2c(=O)[nH]1 [PELDESINE]	3.1 nM	13.5 nM	27 nM
